Reference: patent US7897592B2, “HIV integrase inhibitors” (priority 2005, dated 2011)

Target: T1, HIV-integrase (recombinant integrase) (Human immunodeficiency virus type 1 group M subtype B, UniProt P12497)
T1 construct: Recombinant integrase (0.26 ng) was incubated with the beads
Test: HIV-Integrase Inhibition Activity (SPA bead strand-transfer assay)
Format: biochemical
Conditions: biotin labeled substrate DNA on SPA beads, P33 labeled target DNA, read-out: Activity (IC50 against HIV-integrase)
Description: HIV-Integrase Inhibition Activity. To evaluate in-vitro activity against HIV-integrase, 5 pmole of biotin labeled substrate DNA was bound to 100 μg of Streptavidin coated PVT SPA beads (Amersham Pharmacia Biotech). Recombinant integrase (0.26 ng) was incubated with the beads for 90 min at 37° C. Unbound enzyme was removed by washing the complex followed by addition of inhibitors and 0.1 fmol of P33 labeled target DNA. The reaction was stopped by adding EDTA to a final concentration of 10 mM. Samples were counted in TopCountNXT (Packard) and the CPM was used as a measure of integration. The reaction condition was as described in A. Engelman and R. Craigie, J. Virol. 69, 5908-5911 (1995). The sequences of substrate and target DNA were described in Nucleic Acid Research 22, 1121-1122 (1994). Activity equal to A refers to a compound having IC50=0.002 to 0.10 μM while B and C denote compounds having IC50=0.1 to 1.0 μM and IC50≧1.0 μM respectively.

O=C(NCc1ccc(F)cc1-n1cncn1)c1nc2n(c(=O)c1O)CCS(=O)(=O)C21CCOCC1 [Example 17, Spiro[4H-pyran-4,9′(4′H)-pyrimido[2,1-c][1,4]thiazine]-2′-carboxamide, N-[[4-fluoro-2-(1H-1,2,4-triazol-1-yl)phenyl]methyl]-2,3,5,6,6′,7′-hexahydro-3′-hydroxy-4′-oxo-, 8′,8′-dioxide]
IC50: 2 to 100 nM

CC1(C)c2nc(C(=O)NCc3ccc(F)cc3)c(O)c(=O)n2CCCS1(=O)=O [Example 23, 6H-Pyrimido[2,1-c][1,4]thiazepine-2-carboxamide, N-[(4-fluorophenyl)methyl]-4,7,8,10-tetrahydro-3-hydroxy-10,10-dimethyl-4-oxo-, 9,9-dioxide]
IC50: 2 to 100 nM

Cc1ncnn1-c1cc(F)ccc1CNC(=O)c1nc2n(c(=O)c1O)CCS(=O)(=O)C21CC1 [Example 11, Spiro[cyclopropane-1,9′(4′H)-pyrimido[2,1-c][1,4]thiazine]-2′-carboxamide, N-[[4-fluoro-2-(5-methyl-1H-1,2,4-triazol-1-yl)phenyl]methyl]-6′,7′-dihydro-3′-hydroxy-4′-oxo-, 8′,8′-dioxide]
IC50: 2 to 100 nM
